Test results taken from patent publication US4250259A, “Microbiological production of ketones from C3 -C6 secondary alcohols” (priority 1979, dated 1981).
“Also recorded” adds a separate entry of the source.

Key:
[1] = system: purified secondary alcohol dehydrogenase; assay: inhibition of purified yeast SADH; assay type: biochemical, Pichia sp. NRRL Y-11,328; settings: primary alcohols tested at 10^-3 M
Description: Large scale cultures of Pichia sp. NRRL Y-11,328 were grown with aeration at 30° C. in a 14-liter New Brunswick f fermentor in a mineral salt medium containing methanol (0.4%, v/v) as the sole carbon source. The cells (200 g., wet weight) were suspended in […] sodium phosphate buffer, pH 7.0, containing 1 mM dithiothreitol (buffer A), and crude extracts were prepared as described previously. To the crude extracts, 18 ml. of protamine sulfate solution [2% solution in 0.1 M tris (hydroxymethyl) aminomethane (tris) base] was added dropwise with continuous stirring. After standing for 30 min., the extracts were centrifuged at 20,000× g. for 60 min. The supernatant solution was fractionated with solid ammonium sulfate. Extracts were brought to 50% of saturation with respect to ammonium sulfate by addition of 313 g. of the salt per liter of extract. Precipitated proteins was removed by centrifugation, and 137 g. of ammonium sulfate was added per liter of the supernatant liquid to bring it to 70% of saturation. Material precipitating between 50 and 70% of saturation was collected by centrifugation and dissolved in buffer A. This preparation was dialyzed overnight against buffer A, and the dialyzed material was applied to a DEAE-cellulose column (5×40 cm) that had been equilibrated with buffer A. The sample was washed with 200 ml. of buffer A and eluted with 2 liters of buffer A that contained NaCl in a linear gradient running from a concentration of 0 to 0.5 M. Fractions of 15 ml. were collected. Fractions containing secondary alcohol dehydrogenase activity were pooled and were termed DEAE-cellulose eluate. The DEAE-cellulose eluate was concentrated by ammonium sulfate fractionation.
Secondary alcohol dehydrogenase activity was measured spectrophotometrically at 340 nm with a NAD^+ as an electron acceptor. The reaction mixture, in a total 3.0 ml., contained 50 mM phosphate buffer, pH 8.0, 5 μmoles NAD^+, crude extracts, and substrate. The reactions were started by addition of 100 μl of 0.1 M substrate and the rate of NAD^+ reduction was measured. Protein concentration was determined by the method of Lowry et al.
Various primary alcohols not oxidized by secondary alcohol dehydrogenase were tested as potential inhibitors of enzyme activity.

[2] = system: cell-free SADH system; assay: cofactor requirement of the cell-free SADH systems; assay type: biochemical; settings: cell-free systems tested
Description: To prepare the cell-free secondary alcohol dehydrogenase (SADH) system, the washed cells were disrupted with a Wave Energy Ultrasonic Oscillator, Model W201 (Wave Energy System, Inc., Newtown, Pa.) and centrifuged at 20,000×g. for 30 minutes. […] The enzyme activity was measured with a fluorescence spectrophotometer (Perkin Elmer, Model MPF 44A) by following the formation of reduced NAD (EX 340 nm, Em 460 nm). The formation of reduced NAD was also followed with an absorption spectrophotometer at 340 nm. The assay system (3 ml.) contained: potassium phosphate buffer pH 7.0; 150 μmol.; NAD 1 μmol.; a given amount of enzyme preparation; and secondary alcohol 10 μmol. The reaction was started by the addition of substrate. One unit of enzyme activity represents the reduction of one μmole NAD per minute. Protein concentrations were determined by the Lowry method (J. Biol. Chem., 193: 255-275 (1951)).

[3] = system: cell-free extracts of strain ATCC 21439; assay: stoichiometry of production of 2-butanone from 2-butanol by cell-free extracts (Table IX); assay type: biochemical, Pseudomonas sp. ATCC 21,439; settings: for NAD Consumed: fluorescence spectrophotometrically
Description: The reaction mixtures 3 ml (1.0 mg protein) were incubated at 30°
^(a) Determined gas chromatographically.
^(b) Determined fluorescence spectrophotometrically.
consumption of NAD was corrected.

[4] = system: purified secondary alcohol dehydrogenase; assay: substrate specificity, electron acceptor and stoichiometry of purified yeast SADH
[5] = system: Methylobacter capsulatus Y (NRRL B-11,201); assay: n-alkanes to methyl ketones by resting cell suspensions (Table I); assay type: cell-based; settings: cells grown on methane; 30° C.
Description: (§1) The pH of the nutrient medium was adjusted to 7.0 by the addition of acid or base and 50 ml. samples of the nutrient medium were charged into a plurality of 300 ml. shaker flasks. […] The isolates had been maintained on methanol (0.4% V/V) agar plates or on agar plates under an atmosphere of methane and air having a 1:1 V/V gas ratio which had been transferred every two weeks. For growth on methanol, the medium was supplemented with 0.4% methanol. For growth on methane, the gaseous phase of the inoculated flasks was replaced with a gas mixture comprised of methane and air having a ratio of 1:1 on a V/V basis. The inoculated flasks were sealed air-tight and were incubated on a rotary shaker of orbital radius 2.5 cm. at 250 rpm and at 30° C. for two days until turbidity in the medium had developed. The cells were harvested by centrifugation at 10,000×g. at 4° C. for 30 minutes. The cell pellet was washed twice with a 0.05 M phosphate buffer at a pH of 7.0 (containing 0.02 M MgCl2). The washed cells were then suspended in a 0.05 M phosphate buffer at pH 7.0.
(§2) A 0.5 ml. sample of each washed cell suspension (2 mg. cells) was put into 10 ml. vials at 4° C. which were sealed with a rubber cap. The gaseous phase of the vials was removed with vacuum and then was replaced with a gas mixture of the substrate reactant (i.e., alkane or secondary alcohol) and oxygen at a 1:1 V/V ratio. (In the case of a liquid substrate, i.e., secondary alcohol, 10 μl of the substrate was put in the 10 ml. vials). The vials were then incubated at 30° C. on a rotary shaker at 300 rpm. Samples of product (1-3 μl) were withdrawn periodically with a microsyringe and the products were analyzed by gas chromatography (ionization flame detector column).

[6] = system: Methylobacterium organophilum XX; assay: as above; assay type: cell-based; settings: cells grown on methane; 30° C.
Description: as §1, §2

[7] = system: Methylococcus capsulatus Texas (ATCC 19069); assay: as above; assay type: cell-based; settings: cells grown on methane; 30° C.
Description: as §1, §2

[8] = system: Methylocystis parvus OBBP (NRRL B-11,198); assay: as above; assay type: cell-based; settings: cells grown on methane; 30° C.
Description: as §1, §2

[9] = system: Methylomonas methanica SI (NRRL B-11,199); assay: as above; assay type: cell-based; settings: cells grown on methane; 30° C.
Description: as §1, §2

[10] = system: Methylosinus trichosporium OB3b (NRRL B-11,196); assay: as above; assay type: cell-based; settings: cells grown on methane; 30° C.
Description: as §1, §2

[11] = system: Methylobacterium sp. (CRL-26, NRRL-B-11,208); assay: n-alkanes to secondary alcohols by cell suspensions (Table XVI); assay type: cell-based; settings: Growth Substrate Methane
Excerpt: (§3) Both cell suspensions (particulate fraction) and cell-free particulate fraction of methane-grown methylotroph microorganisms are capable of catalyzing the conversion of C3 -C6 n-alkanes to the corresponding alcohols including secondary alcohols. The conditions for preparing the cell suspensions or the cell-free particulate fractions from methane-grown methylotroph microorganisms is the same as described above. The cell-free particulate fraction requires the presence of oxygen and NADH as an electron donor. […] Tables XVI and XVII show the conversion of C3 -C6 n-alkanes to the corresponding secondary alcohols using cell suspensions and cell-free particulate fractions, respectively, of methane-grown methylotroph microorganisms.
(§4) ^(a) The product secondary alcohols were identified and estimated by […]

[12] = system: Methylococcus capsulatus (Texas, ATCC 19,069); assay: as above; assay type: cell-based; settings: Growth Substrate Methane
Excerpt: as §3, §4

[13] = system: Methylosinus trichosporium (OB3b, NRRL-B-11,196); assay: as above; assay type: cell-based; settings: Growth Substrate Methane
Excerpt: as §3, §4

[14] = system: cell suspensions of C1-utilizers; assay: studies on production of 2-butanone from 2-butanol by cell suspensions of the strains tested; assay type: cell-based; settings: for inhibition of production of 2-butanone from 2-butanol by cell suspensions: strains tested
Excerpt: The following summarizes tests conducted on the optimal conditions for the production of methyl ketones from C3 -C6 sec. alcohols.
The substrate specificity for the oxidation of C3 -C6 secondary alcohols by the strains of C1 -utilizers was studied.

[15] = system: purified secondary alcohol dehydrogenase (SADH); assay: inhibition of purified SADH by metal-chelating agents, thioreagents, metals; assay type: biochemical, Pseudomonas sp. ATCC 21439; settings: for % inhibition of SADH activity: each inhibitor at a final concentration of 1 mM, measured spectrofluorometrically
Description: Secondary alcohol dehydrogenase (SADH) from an obligate methanol utilizer, Pseudomonas sp. ATCC 21439 was purified as follows. […] 0.05 M sodium phosphate buffer, pH 7.0 with 0.5 mM dithiothretol (buffer A) and were disrupted sonically (5×1 min.). The crude extract was separated by centrifugation. The crude extract was heat-treated at 50° C. in a water bath for 10 minutes. The resulting precipitate was removed by centrifugation. To the supernatant solution, 25 ml of protamine sulfate solution (2% solution in 0.1 M Tris base) was added dropwise with continuous stirring. After standing for 30 minutes, the extract was centrifuged. The supernatant solution was fractionated with solid ammonium sulfate. […] This DEAE-cellulose eluate was concentrated by ammonium sulfate fractionation. Material precipitating between 30 and 50% ammonium sulfate saturation was collected by centrifugation and dialyzed overnight against A. This fraction was further washed and filtered through an Amicon unit with XM 50 membrane. The concentrated fraction (6 ml) inside the Amicon unit was applied to an Affi-Gel Blue column (0.8 cm×18 cm) which had been equilibrated with buffer A for affinity chromatography. The column was washed overnight with buffer A (0.18 ml./min.) and then was eluted with buffer A containing 5 mM NAD. Each 1 ml. fraction was collected.
The purified secondary alcohol dehydrogenase enzyme (SADH) may be used directly for converting C3 -C6 secondary alcohols to the corresponding methyl ketones by the procedures described above; however, a source of NAD^+ must be added to the reaction medium. One can determine the NAD-linked secondary alcohol dehydrogenase activity with a fluorescence spectrophotometer (Perkin Elmer, Model MPF 44A) by following the formation of reduced NAD (Ex 340 nm, Em 460 nm). The assay system (3 ml.) will typically contain: sodium phosphate buffer pH 7.0, 150 μmol; NAD 1.0 μmol; a given amount of enzyme preparation; and 20 μmol secondary alcohol. The reaction is started by the addition of secondary alcohol. One unit of SADH enzyme activity represents the reduction of one nmole NAD per minute.
The effect of metal-chelating agents and thioreagents on the activity of the purified SADH enzyme were studied. […] The possibility of ethanol or n-propanol as an inhibitor was studied.

[16] = system: cell-free particulate fractions of methane-grown methylotrophs; assay: inhibitors and electron donors of n-alkane conversion to sec. alcohols by cell-free particulate fractions; assay type: biochemical
Excerpt: The conditions for preparing the cell suspensions or the cell-free particulate fractions from methane-grown methylotroph microorganisms is the same as described above.

Structure (SMILES): O=S(=O)([O-])[O-].[Cu+2] [cupric sulfate]
- inhibition of purified yeast secondary alcohol dehydrogenase activity [1]: inhibited

Structure (SMILES): NC(=O)c1ccc[n+]([C@@H]2O[C@H](COP(=O)([O-])OP(=O)(O)OC[C@H]3O[C@@H](n4cnc5c(N)ncnc54)[C@H](O)[C@@H]3O)[C@@H](O)[C@H]2O)c1 [NAD, Nicotinamide adenine dinucleotide, reference compound]
- effectiveness as cofactor for oxidation of 2-butanol / C3-C6 secondary alcohols [2]: required
- NAD Consumed ([3]; Experiment 1: 10 min.): 270 nmol
- NAD Consumed ([3]; Experiment 2: 20 min.): 540 nmol
- ability to act as electron acceptor/carrier for the purified enzyme [4]: required

Structure (SMILES): CCCCCC [n-Hexane, n-hexane]
- Conversion Rates, n-alkane to corresponding methyl ketone [5]: 0.07 μmoles/hr/mg protein
- Conversion Rates, n-alkane to corresponding methyl ketone [6]: 0.09 μmoles/hr/mg protein
- Conversion Rates, n-alkane to corresponding methyl ketone [7]: 0.09 μmoles/hr/mg protein
- Conversion Rates, n-alkane to corresponding methyl ketone [8]: 0.04 μmoles/hr/mg protein
- Conversion Rates, n-alkane to corresponding methyl ketone [9]: 0.02 μmoles/hr/mg protein
- Conversion Rates, n-alkane to corresponding methyl ketone [10]: 0.05 μmoles/hr/mg protein
- Conversion Rate, n-alkane to corresponding secondary alcohol [11]: 0.007 μmoles/hr/^5 mg. protein
- Conversion Rate, n-alkane to corresponding secondary alcohol [12]: 0.01 μmoles/hr/^5 mg. protein
- Conversion Rate, n-alkane to corresponding secondary alcohol [13]: 0.01 μmoles/hr/^5 mg. protein

Structure (SMILES): CCC(C)=O [2-butanone]
- further oxidation / degradation of 2-butanone by viable cell suspensions ([14]; 8 μmoles of 2-butanone added): Some enzymatic degradation; also recorded: slowly disappeared
- inhibition of production of 2-butanone from 2-butanol by cell suspensions [14]: No product (2-butanone) inhibition was observed; also recorded: did not inhibit
- 2-Butanone Produced ([3]; Experiment 2: 20 min., gas chromatographically): 520 nmol
- inhibition of SADH activity [15]: inhibited

Structure (SMILES): N#C[S][Hg][S]C#N [mercuric thiocyanate]
- inhibition of purified yeast secondary alcohol dehydrogenase activity [1]: inhibited

Structure (SMILES): O=[N+]([O-])[O-].[Ag+] [silver nitrate]
- inhibition of purified yeast secondary alcohol dehydrogenase activity [1]: inhibited

Structure (SMILES): c1cnc2c(c1)ccc1cccnc12 [1,10-phenanthroline]
- inhibition of production of 2-butanone from 2-butanol by cell suspensions [14]: inhibited
- % inhibition of SADH activity [15]: 95%
- inhibition of purified yeast secondary alcohol dehydrogenase activity [1]: strongly inhibited
- inhibition of conversion of n-alkanes to sec. alcohols (words) [16]: inhibited

Structure (SMILES): N[C@@H](CCC(=O)N[C@@H](CS)C(=O)NCC(=O)O)C(=O)O [GSH, glutathione]
- effectiveness as cofactor for oxidation of 2-butanol / C3-C6 secondary alcohols [2]: not effective
- inhibition of purified yeast secondary alcohol dehydrogenase activity [1]: strongly inhibited

Structure (SMILES): Cc1cc2nc3c(=O)[nH]c(=O)nc-3n(C[C@H](O)[C@H](O)[C@H](O)COP(=O)(O)OP(=O)(O)OC[C@H]3O[C@@H](n4cnc5c(N)ncnc54)[C@H](O)[C@@H]3O)c2cc1C [FAD, flavin adenine dinucleotide, reference compound]
- effectiveness as cofactor for oxidation of 2-butanol / C3-C6 secondary alcohols [2]: not effective
- ability to act as electron acceptor/carrier for the purified enzyme [4]: could not act as electron carrier

Structure (SMILES): O=C(O)c1cc[c]([Hg+])cc1.[OH-] [p-hydroxymercuribenzoate]
- % inhibition of SADH activity [15]: 100%
- inhibition of purified yeast secondary alcohol dehydrogenase activity [1]: strongly inhibited

Structure (SMILES): c1c[nH]cn1 [imidiazole]
- inhibition of purified yeast secondary alcohol dehydrogenase activity [1]: strongly inhibited
